Broadly, the IC50 is the concentration that gives 50% inhibition.

Where only a bound is given, the exact number is not on record here.

22 compounds from patent US20230066011A1, “PYRROLOPYRIMIDINE DERIVATIVE, AND PHARMACEUTICAL COMPOSITION FOR PREVENTING OR TREATING PROTEIN KINASE-RELATED DISEASE COMPRISING SAME AS ACTIVE INGREDIENT” (VORONOI CO., LTD., priority 2019, published 2023) can be followed below.

For experiment [1], the target named is T1, human GST-CLK1 (Homo sapiens, UniProt P49759).
T1 construct: purified human GST-CLK1 (129-end, SignalChem) enzyme; purchased SignalChem
T1 sequence (P49759 129-484 limits assumed): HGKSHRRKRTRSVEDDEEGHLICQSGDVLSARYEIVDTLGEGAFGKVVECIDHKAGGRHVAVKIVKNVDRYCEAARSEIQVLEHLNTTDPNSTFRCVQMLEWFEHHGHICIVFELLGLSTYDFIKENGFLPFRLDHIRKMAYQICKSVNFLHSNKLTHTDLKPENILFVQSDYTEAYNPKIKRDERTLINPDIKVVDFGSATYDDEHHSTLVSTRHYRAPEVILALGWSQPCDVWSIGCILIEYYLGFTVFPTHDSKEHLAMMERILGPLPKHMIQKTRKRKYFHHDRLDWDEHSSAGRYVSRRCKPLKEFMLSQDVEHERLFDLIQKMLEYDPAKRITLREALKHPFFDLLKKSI
The experiment can be described thus: GST-CLK1 enzyme inhibition, ADP-Glo kinase assay. The experiment is classed as biochemical. The note with it: ATP 10 μM, GST-CLK1 129-end. In outline: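 ADP-Glo luminescence read-out, relative to untreated solvent control, gave IC50 (nM) from triplicate data sets. Reactions ran an hour at 25° C with 3 ng GST-CLK1 (residues 129-end), 10 μM ATP and specific substrate in Tris-HCl pH 7.4 buffer with MgCl2, BSA and DTT.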
On the technique in general: In ADP-Glo the light output rises with the ADP produced.

Experiment [2] has as its target T2, human GST-DYRK1A (Homo sapiens, UniProt Q13627).
T2 construct: purified human GST-DYRK1A (full length, Thermo Scientifics) enzyme; purchased Thermo Scientifics
The experiment can be described thus: GST-DYRK1A enzyme inhibition, ADP-Glo kinase assay. The experiment is classed as biochemical. The note with it: ATP 10 μM, GST-DYRK1A full length, read-out: DYRK1 IC50. An outline of the steps:
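Full-length enzyme (10 ng) was incubated with 10 μM ATP and a specific substrate for 1 h at 25 °C in 40 mM Tris-HCl pH 7.4, 20 mM MgCl2, 0.5 mg/mL BSA, 50 μM DTT. Luminescence was read against a solvent control, and IC50 values were derived from 3 data sets.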

Regarding `COc1cc(P2(=O)CCN(C3CC3)CC2)ccc1Nc1nc(NCC(C)C)c2c(C#N)c[nH]c2n1` [Example 290, 2-((4-(1-cyclopropyl-4-oxido-1,4-azaphosphinan-4-yl)-2-methoxyphenyl)a-mino)-4-(isobutylamino)-7H-pyrrolo[2,3-d]pyrimidine-5-carbonitrile], the IC50 in experiment [1] and in experiment [2] was 301 to 1000 nM each time.
As to `COc1cc(P2(=O)CCN(C3COC3)CC2)ccc1Nc1nc(NCC(C)C)c2c(C#N)c[nH]c2n1` [Example 291, 4-(isobutyl-amino)-2-((2-methoxy-4-(1-(oxetan-3-yl)-4-oxido-1,4-azaphosphinan-4-yl)phenyl)amino)-7H-pyrrolo[2,3-d]pyrimidine-5-carbonitrile], the half-inhibitory concentration (IC50) fell in the range of 101 to 300 nM in experiment [1] and 301 to 1000 nM in experiment [2].
The matching figures for `COc1cc(P2(=O)CCN(C3CC3)CC2)ccc1Nc1nc(NC(C)C)c2c(C#N)c[nH]c2n1` [Example 292, 2-((4-(1-cyclopropyl-4-oxido-1,4-azaphosphinan-4-yl)-2-methoxyphenyl)a-mino)-4-(isopropylamino)-7H-pyrrolo[2,3-d]pyrimidine-5-carbonitrile]: less than 100 nM and 301 to 1000 nM.
With `COc1cc(P2(=O)CCN(C3COC3)CC2)ccc1Nc1nc(NC(C)C)c2c(C#N)c[nH]c2n1` [Example 293, 4-(isopropylamino)-2-((2-methoxy-4-(1-(oxetan-3-yl)-4-oxido-1,4-azaphosphinan-4-yl)phenyl)amino)-7H-pyrrolo[2,3-d]pyrimidine-5-carbonitrile], the half-inhibitory concentration (IC50) in experiment [1] is less than 100 nM; in experiment [2], 101 to 300 nM.
As for `CC[C@@H](C)Nc1nc(Nc2ccc(P3(=O)CCN(C4CC4)CC3)cc2OC)nc2[nH]cc(C#N)c12` [Example 294, (R)-4-(sec-butylamino)-2-((4-(1-cyclopropyl-4-oxido-1,4-azaphosphinan-4-yl)-2-methoxyphenyl)a-mino)-7H-pyrrolo[2,3-d]pyrimidine-5-carbonitrile], the IC50 in experiment [1] is less than 100 nM; in experiment [2], 301 to 1000 nM.
Turning to `CC[C@@H](C)Nc1nc(Nc2ccc(P3(=O)CCN(C4COC4)CC3)cc2OC)nc2[nH]cc(C#N)c12` [Example 295, (R)-4-(sec-butylamino)-2-((2-methoxy-4-(1-(oxetan-3-yl)-4-oxido-1,4-azaphosphinan-4-yl)phenyl)amino)-7H-pyrrolo[2,3-d]pyrimidine-5-carbonitrile], the IC50 was less than 100 nM in experiment [1] and 301 to 1000 nM in experiment [2].
Consider `CC[C@H](C)Nc1nc(Nc2ccc(P3(=O)CCN(C4CC4)CC3)cc2OC)nc2[nH]cc(C#N)c12` [Example 296, (S)-4-(sec-butylamino)-2-((4-(1-cyclopropyl-4-oxido-1,4-azaphosphinan-4-yl)-2-methoxyphenyl)a-mino)-7H-pyrrolo[2,3-d]pyrimidine-5-carbonitrile], for which the IC50 in experiment [1] and in experiment [2] was 301 to 1000 nM in each case.
In the case of `CC[C@H](C)Nc1nc(Nc2ccc(P3(=O)CCN(C4COC4)CC3)cc2OC)nc2[nH]cc(C#N)c12` [Example 297, (S)-4-(sec-butylamino)-2-((2-methoxy-4-(1-(oxetan-3-yl)-4-oxido-1,4-azaphosphinan-4-yl)phenyl)amino)-7H-pyrrolo[2,3-d]pyrimidine-5-carbonitrile], the IC50 lay in the range of 101 to 300 nM in experiment [1] and 301 to 1000 nM in experiment [2].
On to `COc1cc(P2(=O)CCN(C3CC3)CC2)ccc1Nc1nc(N[C@@H]2CCOC2)c2c(C#N)c[nH]c2n1` [Example 298, (R)-2-((4-(1-cyclopropyl-4-oxido-1,4-azaphosphinan-4-yl)-2-methoxyphenyl)a-mino)-4-((tetrahydrofuran-3-yl)amino)-7H-pyrrolo[2,3-d]pyrimidine-5-carbonitrile], for which the IC50 in experiment [1] and in experiment [2] was 301 to 1000 nM each time.
As to `COc1cc(P2(=O)CCN(C3COC3)CC2)ccc1Nc1nc(N[C@@H]2CCOC2)c2c(C#N)c[nH]c2n1` [Example 299, (R)-2-((2-methoxy-4-(1-(oxetan-3-yl)-4-oxido-1,4-azaphosphinan-4-yl)phenyl)amino)-4-((tetrahydrofuran-3-yl)amino)-7H-pyrrolo[2,3-d]pyrimidine-5-carbonitrile], the IC50 is 101 to 300 nM in experiment [1] and 301 to 1000 nM in experiment [2].
In the same order, the values of `COc1cc(P2(=O)CCN(C3CC3)CC2)ccc1Nc1nc(N[C@H]2CCOC2)c2c(C#N)c[nH]c2n1` [Example 300, (S)-2-((4-(1-cyclopropyl-4-oxido-1,4-azaphosphinan-4-yl)-2-methoxyphenyl)a-mino)-4-((tetrahydrofuran-3-yl)amino)-7H-pyrrolo[2,3-d]pyrimidine-5-carbonitrile] are less than 100 nM and 301 to 1000 nM.
In the same order, the values of `COc1cc(P2(=O)CCN(C3COC3)CC2)ccc1Nc1nc(N[C@H]2CCOC2)c2c(C#N)c[nH]c2n1` [Example 301, (S)-2-((2-methoxy-4-(1-(oxetan-3-yl)-4-oxido-1,4-azaphosphinan-4-yl)phenyl)amino)-4-((tetrahydrofuran-3-yl)amino)-7H-pyrrolo[2,3-d]pyrimidine-5-carbonitrile] are less than 100 nM and 301 to 1000 nM.
Turning to `COc1cc(P2(=O)CCN(C3CC3)CC2)ccc1Nc1nc(NC2CCOCC2)c2c(C#N)c[nH]c2n1` [Example 302, 2-((4-(1-cyclopropyl-4-oxido-1,4-azaphosphinan-4-yl)-2-methoxyphenyl)a-mino)-4-((tetrahydro-2H-pyran-4-yl)amino)-7H-pyrrolo[2,3-d]pyrimidine-5-carbonitrile], the IC50 in experiment [1] and in experiment [2] was 301 to 1000 nM in each case.
As for `COc1cc(P2(=O)CCN(C3COC3)CC2)ccc1Nc1nc(NC2CCOCC2)c2c(C#N)c[nH]c2n1` [Example 303, 2-((2-methoxy-4-(1-(oxetan-3-yl)-4-oxido-1,4-azaphosphinan-4-yl)phenyl)amino)-4-((tetrahydro-2H-pyran-4-yl)amino)-7H-pyrrolo[2,3-d]pyrimidine-5-carbonitrile], the IC50 in experiment [1] and in experiment [2] was 301 to 1000 nM throughout.
As for `COc1cc(P2(=O)CCN(C3CC3)CC2)ccc1Nc1nc(NCC2CC2)c2c(C#N)c[nH]c2n1` [Example 304, 2-((4-(1-cyclopropyl-4-oxido-1,4-azaphosphinan-4-yl)-2-methoxyphenyl)a-mino)-4-((cyclo-propylmeth-yl)amino)-7H-pyrrolo[2,3-d]pyrimidine-5-carbonitrile], the IC50 in experiment [1] and in experiment [2] was 301 to 1000 nM each time.
With `COc1cc(P2(=O)CCN(C3COC3)CC2)ccc1Nc1nc(NCC2CC2)c2c(C#N)c[nH]c2n1` [Example 305, 4-((cyclo-propylmeth-yl)amino)-2-((2-methoxy-4-(1-(oxetan-3-yl)-4-oxido-1,4-azaphosphinan-4-yl)phenyl)amino)-7H-pyrrolo[2,3-d]pyrimidine-5-carbonitrile], the IC50 in experiment [1] is less than 100 nM; in experiment [2], 101 to 300 nM.
For the compound `COc1cc(P2(=O)CCN(C3CC3)CC2)ccc1Nc1nc(NCC2CCC2)c2c(C#N)c[nH]c2n1` [Example 306, 4-((cyclo-butylmethyl)amino)-2-((4-(1-cyclopropyl-4-oxido-1,4-azaphosphinan-4-yl)-2-methoxyphenyl)a-mino)-7H-pyrrolo[2,3-d]pyrimidine-5-carbonitrile], the IC50 in experiment [1] and in experiment [2] was 301 to 1000 nM throughout.
For `COc1cc(P2(=O)CCN(C3COC3)CC2)ccc1Nc1nc(NCC2CCC2)c2c(C#N)c[nH]c2n1` [Example 307, 4-((cyclo-butylmethyl)amino)-2-((2-methoxy-4-(1-(oxetan-3-yl)-4-oxido-1,4-azaphosphinan-4-yl)phenyl)amino)-7H-pyrrolo[2,3-d]pyrimidine-5-carbonitrile], the figures for the 50% inhibitory concentration (IC50) in experiment [1] and in experiment [2] were 101 to 300 nM and 301 to 1000 nM, respectively.
Take `COc1cc(P2(=O)CCN(C3CC3)CC2)ccc1Nc1nc(NCC2CCCC2)c2c(C#N)c[nH]c2n1` [Example 308, 4-((cyclo-pentylmeth-yl)amino)-2-((4-(1-cyclopropyl-4-oxido-1,4-azaphosphinan-4-yl)-2-methoxyphenyl)a-mino)-7H-pyrrolo[2,3-d]pyrimidine-5-carbonitrile]: the IC50 in experiment [1] and in experiment [2] was 301 to 1000 nM in each case.
For the compound `COc1cc(P2(=O)CCN(C3COC3)CC2)ccc1Nc1nc(NCC2CCCC2)c2c(C#N)c[nH]c2n1` [Example 309, 4-((cyclo-pentylmeth-yl)amino)-2-((2-methoxy-4-(1-(oxetan-3-yl)-4-oxido-1,4-azaphosphinan-4-yl)phenyl)amino)-7H-pyrrolo[2,3-d]pyrimidine-5-carbonitrile], the IC50 in experiment [1] and in experiment [2] was 301 to 1000 nM in each case.
As for `COc1cc(P2(=O)CCN(C3CC3)CC2)ccc1Nc1nc(NCCS(C)(=O)=O)c2c(C#N)c[nH]c2n1` [Example 310, 2-((4-(1-cycloproopyl-4-oxido-1,4-azaphosphinan-4-yl)-2-methoxyphenyl)a-mino)-4-((2-(methylsulfonyl)ethyl)amino)-7H-pyrrolo[2,3-d]pyrimidine-5-carbonitrile], the values for the concentration for half-maximal inhibition (IC50) in experiment [1] and in experiment [2] were 101 to 300 nM and 301 to 1000 nM, respectively.
For the compound `COc1cc(P2(=O)CCN(C3COC3)CC2)ccc1Nc1nc(NC2COC2)c2c(C#N)c[nH]c2n1` [Example 311, 2-((2-methoxy-4-(1-(oxetan-3-yl)-4-oxido-1,4-azaphosphinan-4-yl)phenyl)amino)-4-(oxetan-3-ylamino)-7H-pyrrolo[2,3-d]pyrimidine-5-carbonitrile], the IC50 in experiment [1] and in experiment [2] was 301 to 1000 nM each time.
